Numbered stars: 1 amine (or outer) side, 2 acyl side, 3 side chain; on linkers, the order of the positions; unused ones are H or OH. Bridge positions count the residues as written; N and C are the ends. Square brackets hold non-standard residues; d marks the D form. Peptide text beside a SMILES is read from it. * marks the point of attachment. hPhe(3,5-F2-4-CF3) = N[C@@H](CCc1cc(F)c(C(F)(F)F)c(F)c1)C(=O)O; hPhe(3-Cl-4-CF3) = N[C@@H](CCc1ccc(C(F)(F)F)c(Cl)c1)C(=O)O; hPhe(3-F,4-CF3) = N[C@@H](CCc1ccc(C(F)(F)F)c(F)c1)C(=O)O; NMePhe(4-CF3) = CN[C@@H](Cc1ccc(C(F)(F)F)cc1)C(=O)O; NEtPhe(4-Me) = CCN[C@@H](Cc1ccc(C)cc1)C(=O)O; NMePhe(4-Cl) = CN[C@@H](Cc1ccc(Cl)cc1)C(=O)O; NMePhe(4-Me) = CN[C@@H](Cc1ccc(C)cc1)C(=O)O; NMedβ3hAla = C[C@H](CC(=O)[*:2])N(C)[*:1]; NMeGly(cPent) = CN[C@H](C(=O)O)C1CCCC1; NMeCha = CN[C@@H](CC1CCCCC1)C(=O)O; Hyp = O=C(O)[C@@H]1C[C@@H](O)CN1; NMeAhp(2) = CCCCC[C@H](NC)C(=O)O; NMeI = CC[C@H](C)[C@H](NC)C(=O)O; NMeD = CN[C@@H](CC(=O)O)C(=O)O; NMeL = CN[C@@H](CC(C)C)C(=O)O; NMeV = CN[C@H](C(=O)O)C(C)C; d(β3hA) = C[C@@H](N)CC(=O)O; Azetidin(1-yl) = C1CN(*)C1; Morpholide = C1CN(*)CCO1; NMeA = CN[C@@H](C)C(=O)O; NMeAib = CNC(C)(C)C(=O)O; Nle = CCCC[C@H](N)C(=O)O; Piperidide = C1CCN(*)CC1; Ac5c = NC1(C(=O)O)CCCC1; Aze = O=C(O)[C@@H]1CCN1; Cyclobutyl = C1CC(*)C1; Sar = CNCC(=O)O
What was measured:
[1] = biological target: protein-protein interaction between Kras and SOS1 (biotin-tagged human Kras loaded with GDP, His-tagged human SOS1) (Homo sapiens (Human), UniProt P01116, G12D); assay: Protein-protein interaction inhibition between Kras and SOS1 (KrasG12D-SOS PPI) using AlphaScreen; format: biochemical; conditions: AlphaScreen; biotin-tagged human Kras loaded with GDP, His-tagged human SOS1; read-out: KRAS G12D-SOS PPI IC50;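 further: kras produced in E. coli, Ni-coupled donor beads and streptavidin acceptor beads, excitation 680 nm with emission detected at 520–620 nm via singlet oxygen transfer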
[2] = tested on: Human pancreatic cancer cell line AsPC-1 (G12D mutation Kras); assay: AsPC-1 cell growth inhibition (AsPC-1 CGI); format: cell-based; conditions: read-out: AsPC-1 cell growth inhibition, 50% growth inhibitory concentration (IC50 value); 96 hours, CellTiter-Glo, values classified in ranges
Method: Test compounds were serially dilated with dimethyl sulfoxide, and 200 nL was then dispensed to a U-bottom 96-well plate using Labcyte Echo. […] The cell suspension was dispensed to a. plate containing a test compound at 100 μL per well and incubated at 37° C. in a 5% carbon dioxide gas incubator. 96 hours later, 80 μL of CellTiter-Glo (Promega) was added to each well and fluorescence was measured.

Question: `CC[C@H](C)[C@@H]1NC(=O)[C@H](CC(C)C)N(C)C(=O)C[C@@H](C(=O)N2CCOCC2)N(C)C(=O)[C@H]([C@@H](C)CC)N(C)C(=O)C2(CCCC2)NC(=O)[C@@H]2CCCN2C(=O)[C@H](CCc2ccc(C(F)(F)F)c(Cl)c2)NC(=O)CN(C)C(=O)[C@H](CC2CCCCC2)N(C)C(=O)[C@@H]2CCN2C(=O)[C@H](C)N(C)C1=O` [Compound 40] ([NMeL]I[NMeA][Aze][NMeCha][Sar][hPhe(3-Cl-4-CF3)]P[Ac5c][NMeI][NMeD]-Morpholide; lactam N-11) was tested. Which IC50 [1] did it give?
Answer: 0.96 nM

Question: What about the IC50 [2] of the same compound?
Answer: ≤ 20 nM

Question: Which results are given for `CC(C)C[C@H]1C(=O)N[C@@H](COC2CCC2)C(=O)N(C)[C@@H](C)C(=O)N2CC[C@H]2C(=O)N(C)[C@@H](CC2CCCCC2)C(=O)N(C)CC(=O)N[C@@H](CCc2ccc(C(F)(F)F)c(Cl)c2)C(=O)N2CCC[C@H]2C(=O)NC2(CCCC2)C(=O)N(C)[C@@H](C(C)C)C(=O)N(C)[C@H](C(=O)N2CCCCC2)CC(=O)N1C` [Compound 45] ([NMeL]S(Cyclobutyl)[NMeA][Aze][NMeCha][Sar][hPhe(3-Cl-4-CF3)]P[Ac5c][NMeV][NMeD]-Piperidide; lactam N-11)?
Answer: IC50 [1]: 84 nM; IC50 [2]: > 500 nM

Question: What does the source list for `CC[C@H](C)[C@@H]1NC(=O)[C@H](CC(C)C)N(C)C(=O)C[C@@H](C(=O)N2CCOCC2)N(C)C(=O)[C@H]([C@@H](C)CC)N(C)C(=O)C2(CCCC2)NC(=O)[C@@H]2CCCN2C(=O)[C@H](CCc2ccc(C(F)(F)F)c(F)c2)NC(=O)CN(C)C(=O)[C@H](Cc2ccc(C)cc2)N(C)C(=O)[C@@H]2CCN2C(=O)[C@H](C)N(C)C1=O` [Compound 47] ([NMeL]I[NMeA][Aze][NMePhe(4-Me)][Sar][hPhe(3-F,4-CF3)]P[Ac5c][NMeI][NMeD]-Morpholide; lactam N-11)?
Answer: IC50 [1]: 1.5 nM; IC50 [2]: ≤ 20 nM

Question: Which results are given for `CCCCC[C@H]1C(=O)N[C@@H]([C@@H](C)CC)C(=O)N[C@@H](C)C(=O)N2CC[C@H]2C(=O)N(C)[C@@H](Cc2ccc(C(F)(F)F)cc2)C(=O)N(C)CC(=O)N[C@@H](CCc2ccc(C(F)(F)F)c(Cl)c2)C(=O)N2CCC[C@H]2C(=O)NC2(CCCC2)C(=O)N(C)[C@@H]([C@@H](C)CC)C(=O)N(C)[C@H](C(=O)N2CCOCC2)CC(=O)N1C` [Compound 54] ([NMeAhp(2)]IA[Aze][NMePhe(4-CF3)][Sar][hPhe(3-Cl-4-CF3)]P[Ac5c][NMeI][NMeD]-Morpholide; lactam N-11)?
Answer: IC50 [1]: 1.9 nM; IC50 [2]: ≤ 20 nM

Question: Which IC50 [1] does the source give for `CC[C@H](C)[C@@H]1NC(=O)[C@H](CC(C)C)N(C)C(=O)C[C@@H](C(=O)N2CCC2)N(C)C(=O)[C@H](C2CCCC2)N(C)C(=O)C2(CCCC2)NC(=O)[C@@H]2CCCN2C(=O)[C@H](CCc2cc(F)c(C(F)(F)F)c(F)c2)NC(=O)CN(C)C(=O)[C@H](Cc2ccc(C)cc2)N(CC)C(=O)[C@@H]2CCN2C(=O)[C@H](C)N(C)C1=O` [Compound 55] ([NMeL]I[NMeA][Aze][NEtPhe(4-Me)][Sar][hPhe(3,5-F2-4-CF3)]P[Ac5c][NMeGly(cPent)][NMeD]-{Azetidin(1-yl)}; lactam N-11) here?
Answer: 0.77 nM

Question: What about the IC50 [2] of the same compound?
Answer: ≤ 20 nM

Question: What does the source list for `CC[C@H](C)[C@@H]1NC(=O)[C@H](C)N(C)C(=O)C[C@@H](C)NC(=O)[C@H](CC(C)C)N(C)C(=O)C2(CCCC2)NC(=O)[C@H](CC(C)C)N(C)C(=O)[C@H](CCc2ccc(C(F)(F)F)c(Cl)c2)NC(=O)CN(C)C(=O)[C@H](CC2CCCCC2)N(C)C(=O)CN(C)C(=O)CN(C)C1=O` [Compound 61] (cyclo([Ac5c][NMeL][d(β3hA)][NMeA]I[Sar][Sar][NMeCha][Sar][hPhe(3-Cl-4-CF3)][NMeL]))?
Answer: IC50 [1]: 16 nM; IC50 [2]: > 500 nM

Question: `CCO[C@@H]1C[C@H]2C(=O)NC3(CCCC3)C(=O)N(C)[C@@H](C3CCCC3)C(=O)N(C)[C@H](C)CC(=O)N(C)[C@@H](CC(C)C)C(=O)N[C@@H]([C@@H](C)CC)C(=O)N(C)CC(=O)N(C)CC(=O)N(C)[C@@H](Cc3ccc(C(F)(F)F)cc3)C(=O)N(C)CC(=O)N[C@@H](CCc3cc(F)c(C(F)(F)F)c(F)c3)C(=O)N2C1` [Compound 66] (cyclo([Ac5c][NMeGly(cPent)][NMedβ3hAla][NMeL]I[Sar][Sar][NMePhe(4-CF3)][Sar][hPhe(3,5-F2-4-CF3)][Hyp](Et))) was tested. Which IC50 [1] did it give?
Answer: 3.6 nM

Question: What about the IC50 [2] of the same compound?
Answer: ≤ 20 nM

Question: For `CCCC[C@@H]1NC(=O)C(C)(C)N(C)C(=O)[C@H](CC(C)C)NC(=O)[C@H](CCc2ccc(C(F)(F)F)c(F)c2)NC(=O)CN(C)C(=O)[C@H](Cc2ccc(Cl)cc2)N(C)C(=O)CN(C)C(=O)CN(C)C(=O)[C@H]([C@@H](C)CC)NC(=O)[C@H](CC(C)C)N(C)C(=O)C[C@@H](C)N(C)C1=O` [Compound 83] (cyclo(I[Sar][Sar][NMePhe(4-Cl)][Sar][hPhe(3-F,4-CF3)]L[NMeAib][Nle][NMedβ3hAla][NMeL])), which IC50 [1] is on record?
Answer: 110 nM

Question: And the IC50 [2]?
Answer: > 500 nM

Source: patent publication US20240148821A1, “PHARMACEUTICAL USE OF CYCLIC PEPTIDE COMPOUND” (CHUGAI SEIYAKU KABUSHIKI KAISHA, priority 2021, published 2024)
